Experimental data from PubChem BioAssay (NCI).
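A five-concentration, 48-hour dose response in 96-well plates underlies each endpoint, interpolated linearly between surrounding concentrations. At the TGI there is no net growth.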

Assays:
Assay in all cases: NCI-60 cell line screen, 48 h
786-0 renal = system: 786-0 renal
A498 renal = system: A498 renal
A549 NSCLC = system: A549 NSCLC
ACHN renal = system: ACHN renal
CAKI-1 renal = system: CAKI-1 renal
CCRF-CEM leukemia = system: CCRF-CEM leukemia
COLO 205 colon = system: COLO 205 colon
DLD-1 colon = system: DLD-1 colon
DMS 273 small cell lung = system: DMS 273 small cell lung
EKVX NSCLC = system: EKVX NSCLC
HCC-2998 colon = system: HCC-2998 colon
HCT-116 colon = system: HCT-116 colon
HCT-15 colon = system: HCT-15 colon
HL-60(TB) leukemia = system: HL-60(TB) leukemia
HOP-18 NSCLC = system: HOP-18 NSCLC
HOP-62 NSCLC = system: HOP-62 NSCLC
HOP-92 NSCLC = system: HOP-92 NSCLC
HT29 colon = system: HT29 colon
IGROV1 ovarian = system: IGROV1 ovarian
K-562 leukemia = system: K-562 leukemia
KM12 colon = system: KM12 colon
KM20L2 colon = system: KM20L2 colon
LOX IMVI melanoma = system: LOX IMVI melanoma
LXFL 529 NSCLC = system: LXFL 529 NSCLC
M14 melanoma = system: M14 melanoma
M19-MEL melanoma = system: M19-MEL melanoma
MALME-3M melanoma = system: MALME-3M melanoma
MOLT-4 leukemia = system: MOLT-4 leukemia
NCI-H23 lung = system: NCI-H23 lung
NCI-H460 lung = system: NCI-H460 lung
NCI-H522 lung = system: NCI-H522 lung
OVCAR-3 ovarian = system: OVCAR-3 ovarian
OVCAR-4 ovarian = system: OVCAR-4 ovarian
OVCAR-5 ovarian = system: OVCAR-5 ovarian
OVCAR-8 ovarian = system: OVCAR-8 ovarian
RPMI-8226 leukemia = system: RPMI-8226 leukemia
RXF 393 renal = system: RXF 393 renal
RXF-631 renal = system: RXF-631 renal
SF-268 CNS = system: SF-268 CNS
SF-295 CNS = system: SF-295 CNS
SF-539 CNS = system: SF-539 CNS
SK-MEL-2 melanoma = system: SK-MEL-2 melanoma
SK-MEL-28 melanoma = system: SK-MEL-28 melanoma
SK-MEL-5 melanoma = system: SK-MEL-5 melanoma
SK-OV-3 ovarian = system: SK-OV-3 ovarian
SN12C renal = system: SN12C renal
SNB-19 CNS = system: SNB-19 CNS
SNB-75 CNS = system: SNB-75 CNS
SNB-78 CNS = system: SNB-78 CNS
SW-620 colon = system: SW-620 colon
TK-10 renal = system: TK-10 renal
U251 CNS = system: U251 CNS
UACC-257 melanoma = system: UACC-257 melanoma
UACC-62 melanoma = system: UACC-62 melanoma
UO-31 renal = system: UO-31 renal
XF 498 CNS = system: XF 498 CNS
DMS 114 small cell lung = system: DMS 114 small cell lung
SR leukemia = system: SR leukemia

For `Cc1cc(C)nc(NS(=O)(=O)c2ccc(NC(=O)c3cccc4c(Nc5ccc(S(=O)(=O)N=C(N)N)cc5)c5ccccc5nc34)cc2)n1`, which TGI (786-0 renal) is on record?
The TGI was 83.6 µM.

And the TGI (A498 renal)?
Its TGI is over 100 µM.

And the TGI (A549 NSCLC)?
The TGI was over 100 µM.

What about the TGI (ACHN renal) of the same compound?
The TGI was over 100 µM.

What about the TGI (CAKI-1 renal) of the same compound?
The TGI was 55.2 µM.

And the TGI (CCRF-CEM leukemia)?
Its TGI is over 100 µM.

And the TGI (COLO 205 colon)?
Its TGI is over 100 µM.

And the TGI (DLD-1 colon)?
Its TGI is 42.8 µM.

And the TGI (DMS 273 small cell lung)?
The TGI was 80.6 µM.

What about the TGI (EKVX NSCLC) of the same compound?
Its TGI is 83.2 µM.

And the TGI (HCC-2998 colon)?
The TGI was 22.6 µM.

What about the TGI (HCT-116 colon) of the same compound?
The TGI was over 100 µM.

What about the TGI (HCT-15 colon) of the same compound?
Its TGI is over 100 µM.

What about the TGI (HL-60(TB) leukemia) of the same compound?
Its TGI is 26.6 µM.

And the TGI (HOP-18 NSCLC)?
The TGI was over 100 µM.

What about the TGI (HOP-62 NSCLC) of the same compound?
The TGI was 94.3 µM.

And the TGI (HOP-92 NSCLC)?
The TGI was 81.7 µM.

And the TGI (HT29 colon)?
The TGI was over 100 µM.

What about the TGI (IGROV1 ovarian) of the same compound?
Its TGI is over 100 µM.

What about the TGI (K-562 leukemia) of the same compound?
Its TGI is over 100 µM.

And the TGI (KM12 colon)?
The TGI was 26.9 µM.

And the TGI (KM20L2 colon)?
The TGI was over 100 µM.

And the TGI (LOX IMVI melanoma)?
Its TGI is over 100 µM.

And the TGI (LXFL 529 NSCLC)?
The TGI was 59.1 µM.

What about the TGI (M14 melanoma) of the same compound?
Its TGI is over 100 µM.

And the TGI (M19-MEL melanoma)?
The TGI was over 100 µM.

What about the TGI (MALME-3M melanoma) of the same compound?
The TGI was over 100 µM.

What about the TGI (MOLT-4 leukemia) of the same compound?
The TGI was over 100 µM.

And the TGI (NCI-H23 lung)?
The TGI was over 100 µM.

And the TGI (NCI-H460 lung)?
The TGI was over 100 µM.

What about the TGI (NCI-H522 lung) of the same compound?
Its TGI is over 100 µM.

And the TGI (OVCAR-3 ovarian)?
Its TGI is 35.5 µM.

And the TGI (OVCAR-4 ovarian)?
Its TGI is 43.7 µM.

What about the TGI (OVCAR-5 ovarian) of the same compound?
The TGI was over 100 µM.

What about the TGI (OVCAR-8 ovarian) of the same compound?
Its TGI is over 100 µM.

And the TGI (RPMI-8226 leukemia)?
Its TGI is over 100 µM.

And the TGI (RXF 393 renal)?
Its TGI is 52 µM.

What about the TGI (RXF-631 renal) of the same compound?
The TGI was over 100 µM.

And the TGI (SF-268 CNS)?
Its TGI is over 100 µM.

What about the TGI (SF-295 CNS) of the same compound?
Its TGI is over 100 µM.

And the TGI (SF-539 CNS)?
Its TGI is over 100 µM.

And the TGI (SK-MEL-2 melanoma)?
Its TGI is over 100 µM.

And the TGI (SK-MEL-28 melanoma)?
The TGI was 99.8 µM.

What about the TGI (SK-MEL-5 melanoma) of the same compound?
The TGI was over 100 µM.

What about the TGI (SK-OV-3 ovarian) of the same compound?
The TGI was over 100 µM.

What about the TGI (SN12C renal) of the same compound?
The TGI was over 100 µM.

What about the TGI (SNB-19 CNS) of the same compound?
Its TGI is over 100 µM.

And the TGI (SNB-75 CNS)?
Its TGI is over 100 µM.

And the TGI (SNB-78 CNS)?
The TGI was 99.2 µM.

And the TGI (SW-620 colon)?
The TGI was 42.4 µM.

And the TGI (TK-10 renal)?
Its TGI is 92.3 µM.

What about the TGI (U251 CNS) of the same compound?
Its TGI is over 100 µM.

And the TGI (UACC-257 melanoma)?
The TGI was 60 µM.

What about the TGI (UACC-62 melanoma) of the same compound?
Its TGI is over 100 µM.

What about the TGI (UO-31 renal) of the same compound?
The TGI was over 100 µM.

What about the TGI (XF 498 CNS) of the same compound?
The TGI was over 100 µM.

Which results are given for `CCOC(=O)NC(=O)c1cn(CCN2CCN(C(=O)CCCCCCCCCCNc3ncnc4c3ncn4C3OC(CO)C(O)C3O)CC2)c(=O)[nH]c1=O` (stereo not drawn)?
TGI (786-0 renal): > 100 µM; TGI (A498 renal): > 100 µM; TGI (A549 NSCLC): > 100 µM; TGI (ACHN renal): > 100 µM; TGI (CAKI-1 renal): > 100 µM; TGI (CCRF-CEM leukemia): > 100 µM; TGI (COLO 205 colon): > 100 µM; TGI (DLD-1 colon): > 100 µM; TGI (DMS 114 small cell lung): > 100 µM; TGI (HCC-2998 colon): > 100 µM; TGI (HCT-116 colon): > 100 µM; TGI (HCT-15 colon): > 100 µM; TGI (HL-60(TB) leukemia): > 100 µM; TGI (HOP-62 NSCLC): > 100 µM; TGI (HOP-92 NSCLC): > 100 µM; TGI (HT29 colon): > 100 µM; TGI (IGROV1 ovarian): > 100 µM; TGI (K-562 leukemia): > 100 µM; TGI (KM12 colon): > 100 µM; TGI (KM20L2 colon): > 100 µM; TGI (LOX IMVI melanoma): > 100 µM; TGI (LXFL 529 NSCLC): > 100 µM; TGI (M14 melanoma): > 100 µM; TGI (MALME-3M melanoma): > 100 µM; TGI (MOLT-4 leukemia): > 100 µM; TGI (NCI-H23 lung): > 100 µM; TGI (NCI-H460 lung): > 100 µM; TGI (OVCAR-8 ovarian): > 100 µM; TGI (RXF-631 renal): > 100 µM; TGI (SF-268 CNS): > 100 µM; TGI (SF-295 CNS): > 100 µM; TGI (SK-MEL-2 melanoma): > 100 µM; TGI (SK-MEL-28 melanoma): > 100 µM; TGI (SK-MEL-5 melanoma): > 100 µM; TGI (SK-OV-3 ovarian): > 100 µM; TGI (SN12C renal): > 100 µM; TGI (SNB-19 CNS): > 100 µM; TGI (SNB-75 CNS): > 100 µM; TGI (SNB-78 CNS): > 100 µM; TGI (SR leukemia): > 100 µM; TGI (SW-620 colon): > 100 µM; TGI (TK-10 renal): > 100 µM; TGI (U251 CNS): > 100 µM; TGI (UACC-257 melanoma): > 100 µM; TGI (UACC-62 melanoma): > 100 µM; TGI (UO-31 renal): > 100 µM; TGI (XF 498 CNS): > 100 µM
